Activity calls are given as the source filed them. The calls are words filed in the database; no cut-off is given here.
What was measured:
[1] = Ionophoric activity across HPTS dye encapsulated pH 7 egg yolk L-alpha-phosphatidylcholine-based large unilamellar vesicles assessed as chloride ion transport by measuring induction of pH discharge in presence of NaCl loaded external vesicles by fluorescence method
[2] = Ionophoric activity across egg yolk L-alpha-phosphatidylcholine-based large unilamellar vesicles loaded with NaCl assessed as release of chloride ion after 300 seconds in presence of NaNO3 loaded external vesicles by electrode technique
[3] = (§1) Ionophoric activity across pyranine dye encapsulated pH 7 egg yolk L-alpha-phosphatidylcholine-based large unilamellar vesicles assessed as chloride ion transport by measuring induction of pH discharge in presence of NaCl loaded external vesicles by fluorescence method
[4] = (§2) Ionophoric activity across pyranine dye encapsulated pH 7 egg yolk L-alpha-phosphatidylcholine-based large unilamellar vesicles assessed as bromide ion transport by measuring induction of pH discharge in presence of NaBr loaded external vesicles by fluorescence method
[5] = (§3) Ionophoric activity across pyranine dye encapsulated pH 7 egg yolk L-alpha-phosphatidylcholine-based large unilamellar vesicles assessed as iodide ion transport by measuring induction of pH discharge in presence of NaI loaded external vesicles by fluorescence method
[6] = (§4) Ionophoric activity across pyranine dye encapsulated pH 7 egg yolk L-alpha-phosphatidylcholine-based large unilamellar vesicles assessed as nitrate ion transport by measuring induction of pH discharge in presence of NaNO3 loaded external vesicles by fluorescence method
[7] = Binding affinity to tetrabutylammonium chloride anion after 2 mins by spectrophotometric method
[8] = Binding affinity to tetramethylammonium sulfate anion after 2 mins by spectrophotometric method
[9] = as §1, with “measuring initial rate constant for” for “measuring”, “discharge at 0.0313 mol%” for “discharge”, “method (reference value: 0.81 +/- 0.22 10^-2/min)” for “method”
[10] = as §1, with “measuring initial rate constant for” for “measuring”, “discharge at 0.125 mol%” for “discharge”, “method (reference value: 0.81 +/- 0.22 10^-2/min)” for “method”
[11] = as §1, with “measuring initial rate constant for” for “measuring”, “discharge at 0.25 mol%” for “discharge”, “method (reference value: 0.81 +/- 0.22 10^-2/min)” for “method”
[12] = as §1, with “measuring initial rate constant for” for “measuring”, “discharge at 0.5 mol%” for “discharge”, “method (reference value: 0.81 +/- 0.22 10^-2/min)” for “method”
[13] = as §1, with “measuring initial rate constant for” for “measuring”, “discharge at 1 mol%” for “discharge”, “method (reference value: 0.81 +/- 0.22 10^-2/min)” for “method”
[14] = as §2, with “measuring initial rate constant for” for “measuring”, “discharge at 0.0156 mol%” for “discharge”, “method (reference value: 2.08 +/- 0.19 10^-2/min)” for “method”
[15] = as §2, with “measuring initial rate constant for” for “measuring”, “discharge at 0.0313 mol%” for “discharge”, “method (reference value: 2.08 +/- 0.19 10^-2/min)” for “method”
[16] = as §2, with “measuring initial rate constant for” for “measuring”, “discharge at 0.0625 mol%” for “discharge”, “method (reference value: 2.08 +/- 0.19 10^-2/min)” for “method”
[17] = as §2, with “measuring initial rate constant for” for “measuring”, “discharge at 0.125 mol%” for “discharge”, “method (reference value: 2.08 +/- 0.19 10^-2/min)” for “method”
[18] = as §2, with “measuring initial rate constant for” for “measuring”, “discharge at 0.25 mol%” for “discharge”, “method (reference value: 2.08 +/- 0.19 10^-2/min)” for “method”
[19] = as §3, with “measuring initial rate constant for” for “measuring”, “discharge at 0.0039 mol%” for “discharge”, “method (reference value: 3.52 +/- 0.22 10^-2/min)” for “method”
[20] = as §3, with “measuring initial rate constant for” for “measuring”, “discharge at 0.0078 mol%” for “discharge”, “method (reference value: 3.52 +/- 0.22 10^-2/min)” for “method”
[21] = as §3, with “measuring initial rate constant for” for “measuring”, “discharge at 0.0156 mol%” for “discharge”, “method (reference value: 3.52 +/- 0.22 10^-2/min)” for “method”
[22] = as §3, with “measuring initial rate constant for” for “measuring”, “discharge at 0.0313 mol%” for “discharge”, “method (reference value: 3.52 +/- 0.22 10^-2/min)” for “method”
[23] = as §3, with “measuring initial rate constant for” for “measuring”, “discharge at 0.0625 mol%” for “discharge”, “method (reference value: 3.52 +/- 0.22 10^-2/min)” for “method”
[24] = as §4, with “measuring initial rate constant for” for “measuring”, “discharge at 0.01563 mol%” for “discharge”, “method (reference value: 2.24 +/- 0.52 10^-2/min)” for “method”
[25] = as §4, with “measuring initial rate constant for” for “measuring”, “discharge at 0.0625 mol%” for “discharge”, “method (reference value: 2.24 +/- 0.52 10^-2/min)” for “method”
[26] = as §4, with “measuring initial rate constant for” for “measuring”, “discharge at 0.125 mol%” for “discharge”, “method (reference value: 2.24 +/- 0.52 10^-2/min)” for “method”
[27] = Ionophoric activity across egg yolk L-alpha-phosphatidylcholine-based large unilamellar vesicles loaded with LiCl assessed as chloride ion efflux at 3 mol% after 300 seconds in presence of NaNO3 loaded external vesicles by electrode technique
[28] = Ionophoric activity across egg yolk L-alpha-phosphatidylcholine-based large unilamellar vesicles loaded with KCl assessed as chloride ion efflux at 3 mol% after 300 seconds in presence of NaNO3 loaded external vesicles by electrode technique
[29] = Ionophoric activity across egg yolk L-alpha-phosphatidylcholine-based large unilamellar vesicles loaded with RbCl assessed as chloride ion efflux at 3 mol% after 300 seconds in presence of NaNO3 loaded external vesicles by electrode technique
[30] = Ionophoric activity across egg yolk L-alpha-phosphatidylcholine-based large unilamellar vesicles loaded with CsCl assessed as chloride ion efflux at 3 mol% after 300 seconds in presence of NaNO3 loaded external vesicles by electrode technique
[31] = as §4, with “measuring initial rate constant for” for “measuring”, “discharge at 0.25 mol%” for “discharge”, “method (reference value: 2.24 +/- 0.52 10^-2/min)” for “method”
[32] = as §4, with “measuring initial rate constant for” for “measuring”, “discharge at 0.0313 mol%” for “discharge”, “method (reference value: 2.24 +/- 0.52 10^-2/min)” for “method”
[33] = Ionophoric activity across pyranine dye encapsulated pH 7 egg yolk L-alpha-phosphatidylcholine-based large unilamellar vesicles assessed as sulfate ion transport by measuring induction of pH discharge up to 3 mol% in presence of Na2SO4 loaded external vesicles by fluorescence method
[34] = Ionophoric activity across egg yolk L-alpha-phosphatidylcholine-based large unilamellar vesicles loaded with NaCl assessed as chloride transportat 1 mol% after 300 seconds in presence of NaSO4 loaded external vesicles by electrode technique
[35] = Ionophoric activity across egg yolk L-alpha-phosphatidylcholine-based large unilamellar vesicles loaded with KCl assessed as chloride ion efflux at 1 mol% after 300 seconds in presence of NaNO3 loaded external vesicles by electrode technique
[36] = as §1, with “measuring initial rate constant for” for “measuring”, “discharge at 0.0078 mol%” for “discharge”, “method (reference value: 0.81 +/- 0.22 10^-2/min)” for “method”
[37] = Binding affinity to tetrabutylammonium chloride anion by 1H NMR spectrophotometric method
[38] = as §1, with “measuring initial rate constant for” for “measuring”, “discharge at 0.0625 mol%” for “discharge”, “method (reference value: 0.81 +/- 0.22 10^-2/min)” for “method”
[39] = as §2, with “measuring initial rate constant for” for “measuring”, “discharge at 0.0078 mol%” for “discharge”, “method (reference value: 2.08 +/- 0.19 10^-2/min)” for “method”
[40] = as §4, with “measuring initial rate constant for” for “measuring”, “discharge at 0.00781 mol%” for “discharge”, “method (reference value: 2.24 +/- 0.52 10^-2/min)” for “method”
[41] = as §4, with “measuring initial rate constant for” for “measuring”, “discharge at 0.03125 mol%” for “discharge”, “method (reference value: 2.24 +/- 0.52 10^-2/min)” for “method”
[42] = Ionophoric activity across egg yolk L-alpha-phosphatidylcholine-based large unilamellar vesicles loaded with LiCl assessed as chloride ion efflux at 1 mol% after 300 seconds in presence of NaNO3 loaded external vesicles by electrode technique
[43] = Ionophoric activity across egg yolk L-alpha-phosphatidylcholine-based large unilamellar vesicles loaded with RbCl assessed as chloride ion efflux at 1 mol% after 300 seconds in presence of NaNO3 loaded external vesicles by electrode technique
[44] = Ionophoric activity across egg yolk L-alpha-phosphatidylcholine-based large unilamellar vesicles loaded with CsCl assessed as chloride ion efflux at 1 mol% after 300 seconds in presence of NaNO3 loaded external vesicles by electrode technique
[45] = Binding affinity to tetrabutylammonium sulphate anion by 1H NMR spectrophotometric method

Activity [2] | EC50 [3] [mol%] | EC50 [4] [mol%] | EC50 [5] [mol%] | EC50 [6] [mol%] | Ka [7] | logKa [7] | Ka [8] [×10⁵ /M] | logKa [8] | K [9] [×10⁻² /min] | K [10] [×10⁻² /min] | K [11] [×10⁻² /min] | K [14] [×10⁻² /min] | K [15] [×10⁻² /min] | K [16] [×10⁻² /min] | K [17] [×10⁻² /min] | K [19] [×10⁻² /min] | K [20] [×10⁻² /min] | K [21] [×10⁻² /min] | K [22] [×10⁻² /min] | SMILES | also measured
 |  |  |  |  |  |  |  |  |  |  |  |  |  |  |  |  |  |  |  | O=C(Nc1ccccc1)Nc1ccc(N2COc3c(c4c(c5c3CN(c3ccc(NC(=O)Nc6ccccc6)cc3)CO5)CN(c3ccc(NC(=O)Nc5ccccc5)cc3)CO4)C2)cc1 | EC50 [1]: 0.49 mol%
Dose-dependent effect | 0.75 | 0.49 | 0.05 | 0.23 | 2.94 ×10³ /M | 3.47 | > 1 | > 5 | 1.32 | 2.57 | 3.87 | 2.22 | 2.89 | 3.85 | 6.24 | 3.7 | 4.41 | 5.92 | 7.67 | O=c1c(NCCN(CCNc2c(Nc3cc(C(F)(F)F)cc(C(F)(F)F)c3)c(=O)c2=O)CCNc2c(Nc3cc(C(F)(F)F)cc(C(F)(F)F)c3)c(=O)c2=O)c(Nc2cc(C(F)(F)F)cc(C(F)(F)F)c2)c1=O | K [12]: 6.63 ×10⁻² /min; K [13]: 9.42 ×10⁻² /min; K [18]: 10.8 ×10⁻² /min; K [23]: 10.6 ×10⁻² /min; K [24]: 2.77 ×10⁻² /min; K [25]: 4.52 ×10⁻² /min; K [26]: 6.9 ×10⁻² /min; Activity [27]: inactive; Activity [28]: inactive; Activity [29]: inactive; Activity [30]: inactive; K [31]: 10.2 ×10⁻² /min; K [32]: 3.2 ×10⁻² /min; Activity [33]: inactive; Activity [34]: inactive
Dose-dependent effect | 0.14 | 0.13 | 0.06 | 0.11 | 7.03 ×10² /M | 2.84 | 4.79 | 5.64 | 1.68 | 4.04 | 5.41 | 3.37 | 4.31 | 7.27 | 11 | 3.94 | 5.2 | 6.27 | 9.99 | O=c1c(NCCN(CCNc2c(Nc3ccc(C(F)(F)F)cc3)c(=O)c2=O)CCNc2c(Nc3ccc(C(F)(F)F)cc3)c(=O)c2=O)c(Nc2ccc(C(F)(F)F)cc2)c1=O | Activity [35]: inactive; K [36]: 1.27 ×10⁻² /min; logKa [37]: 2.65; K [38]: 2.69 ×10⁻² /min; K [39]: 2.59 ×10⁻² /min; K [23]: 14.5 ×10⁻² /min; K [40]: 2.53 ×10⁻² /min; K [24]: 3.17 ×10⁻² /min; K [41]: 4.91 ×10⁻² /min; K [25]: 7.45 ×10⁻² /min; K [26]: 11.4 ×10⁻² /min; Activity [42]: inactive; Activity [43]: inactive; Activity [44]: inactive; Activity [33]: inactive; Activity [34]: inactive; logKa [45]: 4.87
